Earlier results on eight compounds are cited in patent publication US20080085301A1, “Method for transdermal administration of antimicrobial medications” (priority 2005, published 2008).

SMILES strings stand for the structures.

This data set relates to Streptococcus pneumoniae. As to conditions: based on Streptococcus pneumoniae; in vitro.
For the compound `O=C(N[C@H](CO)[C@H](O)c1ccc([N+](=O)[O-])cc1)C(Cl)Cl` [Chloramphenicol], the “Approximate MIC” value is around 4 µg/mL.

`N[C@@H]1CON=C1O` [Cycloserine]: the “Approximate MIC” value is around 32 µg/mL.

As to `CCCCCCCCCC(=O)N[C@@H](Cc1c[nH]c2ccccc12)C(=O)N[C@H](CC(N)=O)C(=O)N[C@@H](CC(=O)O)C(=O)N[C@@H]1C(=O)NCC(=O)N[C@@H](CCCN)C(=O)N[C@@H](CC(=O)O)C(=O)N[C@H](C)C(=O)N[C@@H](CC(=O)O)C(=O)NCC(=O)N[C@H](CO)C(=O)N[C@@H]([C@H](C)CC(=O)O)C(=O)N[C@@H](CC(=O)c2ccccc2N)C(=O)O[C@@H]1C` [Daptomycin], the “Approximate MIC” value is around 0.5 µg/mL. As to `CC(=O)NC[C@H]1CN(c2ccc(N3CCOCC3)c(F)c2)C(=O)O1` [Linezolid], the “Approximate MIC” value was around 2 µg/mL. As for `C[C@@H](O)[C@H]1C(=O)N2C(C(=O)O)=C(S[C@@H]3CN[C@H](C(=O)N(C)C)C3)[C@H](C)[C@H]12` [Meropenem], the “Approximate MIC” value was around 1 µg/mL. For `CO[C@H]1/C=C/O[C@@]2(C)Oc3c(C)c(O)c4c(O)c(c(/C=N/N5CCN(C)CC5)c(O)c4c3C2=O)NC(=O)/C(C)=C\C=C\[C@H](C)[C@H](O)[C@@H](C)[C@@H](O)[C@@H](C)[C@H](OC(C)=O)[C@@H]1C` [Rifampin], the “Approximate MIC” value is around 0.5 µg/mL. `[H]/N=C(/N)N[C@H]1[C@H](O)[C@@H](O)[C@H](O[C@@H]2O[C@@H](C)[C@](O)(C=O)[C@H]2O[C@@H]2O[C@@H](CO)[C@H](O)[C@@H](O)[C@@H]2NC)[C@@H](N/C(N)=N\[H])[C@@H]1O` [Streptomycin]: the “Approximate MIC” value was around 2 µg/mL.

Turning to `CN[C@H](CC(C)C)C(=O)N[C@H]1C(=O)N[C@@H](CC(N)=O)C(=O)N[C@H]2C(=O)N[C@H]3C(=O)N[C@H](C(=O)N[C@H](C(=O)O)c4cc(O)cc(O)c4-c4cc3ccc4O)[C@H](O)c3ccc(c(Cl)c3)Oc3cc2cc(c3O[C@@H]2O[C@H](CO)[C@@H](O)[C@H](O)[C@H]2O[C@H]2C[C@](C)(N)[C@H](O)[C@H](C)O2)Oc2ccc(cc2Cl)[C@H]1O` [Vancomycin], the “Approximate MIC” value is around 16 µg/mL.
